Results: patent US20240360177A1, “PEPTIDES WITH ANTIMICROBIAL ACTIVITIES” (priority 2021, published 2024)
In brackets after ≈: the same amount, converted by molar mass. Read-outs that look alike come from different tables or passages of the source. Starred links: 1 amine or outer side, 2 acyl side, 3 side chain; linkers in the order of their positions; H or OH if unused. Non-standard residues stand in square brackets, D forms with d. Residues, ends and D or L forms follow the SMILES beside them. NH(CH2)9CO = O=C(CCCCCCCCCN[*:1])[*:2]; Aoc = NCCCCCCCC(=O)O; βAla = NCCC(=O)O

What was measured:
[1] = tested on: Paecilomyces variotii; settings: N = 1 strain; 48 hrs
[2] = tested on: Fusarium spp.
[3] = tested on: Lomentospora prolificans; settings: N = 1 strain
[4] = tested on: Scedosporium spp.
[5] = tested on: Rhizopus arrhizus; settings: N = 3 strains; 24 hrs
[6] = tested on: C. parapsilosis; settings: 24 h
[7] = tested on: C. albicans; settings: 24 h
[8] = in vitro; settings: human, EC50 cytotoxicity in HepG2, intracellular ATP assay
[9] = Acute toxicity in CD-1 mice; settings: both sexes, mouse, in vivo
Protocol: Acute toxicity and subacute toxicity of ACPs were tested in CD-1 mice. In the acute toxicity study, groups of CD-1 male or female mice were administered single intravenous or intraperitoneal escalating doses (n=2-3 per dose) of the peptides dissolved in normal saline for injection or in phosphate buffered saline. The intravenous dose was administered via tail vein with a slow push over 15-20 seconds. Doses were escalated based on tolerability.

[10] = tested on: Pseudomonas aeruginosa ATCC 27853; format: cell-based
[11] = tested on: C. neoformans; settings: 72 h
[12] = tested on: C. auris; settings: 24 h
[13] = tested on: C. dubliniensis; settings: 24 h
[14] = tested on: C. gattii; settings: 72 h
[15] = tested on: Staphylococcus aureus ATCC 29213; format: cell-based
[16] = tested on: C. tropicalis; settings: 24 h
[17] = tested on: C. krusei; settings: 24 h
[18] = tested on: Escherichia coli ATCC 25922; format: cell-based
[19] = tested on: C. glabrata; settings: 24 h

SMILES	MIC Range Paecilomyces variotii [1] [µg/mL]	MIC C. parapsilosis [6] [µg/mL]	MIC C. albicans [7] [µg/mL]	EC50 [8] [µg/mL]	MIC Range Fusarium spp. ([2]; 48 h) [µg/mL]	MIC Pseudomonas aeruginosa [10] [µg/mL]	MIC C. neoformans [11] [µg/mL]	MIC C. auris [12] [µg/mL]	MIC C. dubliniensis [13] [µg/mL]	MIC C. gattii [14] [µg/mL]	MIC Staphylococcus aureus [15] [µg/mL]	MIC C. tropicalis [16] [µg/mL]	MIC C. krusei [17] [µg/mL]	MIC Escherichia coli [18] [µg/mL]	MIC C. glabrata [19] [µg/mL]	other results
C[C@@H](c1ncncc1F)[C@](O)(Cn1cncn1)c1ccc(F)cc1F [VOR, voriconazole, reference compound]	0.12 (≈ 0.344 µM)															MIC Range Fusarium spp. ([2]; N = 3 strains, 48 hrs): 4 to 16 µg/mL; MIC Range Lomentospora prolificans [3]: 16 µg/mL (≈ 45.8 µM); MIC Range Scedosporium spp. ([4]; N = 2 strains, 72 hrs): 1 to 2 µg/mL
CC[C@@H]([C@H](C)O)n1ncn(-c2ccc(N3CCN(c4ccc(OC[C@@H]5CO[C@@](Cn6cncn6)(c6ccc(F)cc6F)C5)cc4)CC3)cc2)c1=O [POS, posaconazole, reference compound]	≤0.03															MIC Range Rhizopus arrhizus [5]: 0.12 to 0.25 µg/mL
N=C(N)NCCC[C@@H](N)C(=O)N[C@@H](CCCNC(=N)N)C(=O)N[C@H](CCCNC(=N)N)C(=O)NCCCCCCCCCC(=O)N[C@H](CCCNC(=N)N)C(=O)N[C@@H](CCCNC(=N)N)C(=O)N[C@H](CCCNC(=N)N)C(=O)NCCCCCCCC(=O)N[C@H](CCCNC(=N)N)C(=O)N[C@@H](CCCNC(=N)N)C(=O)N[C@H](CCCNC(=N)N)C(=O)N[C@@H](CCCNC(=N)N)C(=O)NCCCCCCCC(=O)N[C@H](CCCNC(=N)N)C(=O)N[C@@H](CCCNC(=N)N)C(=O)N[C@H](CCCNC(=N)N)C(=O)N[C@@H](CCCNC(=N)N)C(N)=O [SEQ ID NO: 33, rRr-(Ada)-rRr-(Aoa)-rRrR-(Aoa)-rRrR-NH2] (H-[dR]R[dR][NH(CH2)9CO][dR]R[dR][Aoc][dR]R[dR]R[Aoc][dR]R[dR]R-NH2)		0.5 (≈ 0.188 µM)	1 (≈ 0.377 µM)	> 300	0.25 to 0.5	32 (≈ 12.1 µM)	0.25 (≈ 0.0941 µM)	0.5 (≈ 0.188 µM)	0.25 (≈ 0.0941 µM)	0.5 (≈ 0.188 µM)	16 (≈ 6.03 µM)	0.5 (≈ 0.188 µM)	0.5 (≈ 0.188 µM)	16 (≈ 6.03 µM)	0.5 (≈ 0.188 µM)	MTD ([9]; single IP dose, read-out: Tolerated single intraperitoneal dose): 10 to 15 mg/kg; MTD ([9]; single IV dose via tail vein, read-out: Tolerated single intravenous dose): 5 to 7.5 mg/kg; MIC Range Scedosporium spp. ([4]; 72 h): 0.25 µg/mL (≈ 0.0941 µM)
N=C(N)NCCC[C@@H](N)C(=O)N[C@@H](CCCNC(=N)N)C(=O)N[C@H](CCCNC(=N)N)C(=O)NCCC(=O)N[C@H](CCCNC(=N)N)C(=O)N[C@@H](CCCNC(=N)N)C(=O)N[C@H](CCCNC(=N)N)C(=O)NCCC(=O)N[C@H](CCCNC(=N)N)C(=O)N[C@@H](CCCNC(=N)N)C(=O)N[C@H](CCCNC(=N)N)C(=O)N[C@@H](CCCNC(=N)N)C(=O)NCCC(=O)O [SEQ ID NO: 17, rRr-(Apr)-rRr-(Apr)-rRrR-(Apr)] (H-[dR]R[dR][βAla][dR]R[dR][βAla][dR]R[dR]R[βAla]-OH)		2 (≈ 1.12 µM)	4 (≈ 2.23 µM)	> 300	16 to 64	>64	64 (≈ 35.7 µM)	>64	8 (≈ 4.46 µM)	8 (≈ 4.46 µM)	>64	4 (≈ 2.23 µM)	1 (≈ 0.558 µM)	>64	>64	
